Assay results taken from patent publication US4919937A, “Percutaneous administration of tamoxifen” (priority 1984, dated 1990).

Assays:
[1] = tamoxifen per os; 4-hydroxytamoxifen orally or parenterally, other than percutaneously; cited from earlier work
[2] = passage through the liver; cited from earlier work
[3] = tested on: receptor molecules in cancerous mammary tumors; experiment: percutaneous application on the skin overlying cancerous mammary tumors; assay type: in vivo
[4] = cutaneous absorption; assay type: in vivo; details: skin, topical or ocular; percutaneous; read-out: coefficient of cutaneous absorption
Text: (§1) The daily doses of product to be administered are easy to calculate in terms of the absorption coefficients of the drugs and the doses which it is desired to obtain for 4-hydroxytamoxifen and progesterone at the level of their receptor molecules.

[5] = tested on: progesterone receptor; details: common knowledge; cited from earlier work
[6] = solubility in alcohol; assay type: physicochemical
Text: as §1

[7] = tested on: progesterone receptors; experiment: tracer doses of tritiated progesterone administered percutaneously under the same conditions; assay type: in vivo
Procedure: In another experiment, tracer doses of tritiated progesterone were administered under the same conditions as 4-hydroxytamoxifen.

[8] = cited from earlier work; for hepatic by-pass after percutaneous administration: alcoholic solution
[9] = tracer doses of tritiated 4-hydroxytamoxifen applied in alcoholic solution 24 hours before excision of cancerous breasts; assay type: in vivo; details: human, breast tissue, topical or ocular, read-out: portion of the radioactivity metabolized to unidentified products
[10] = tested on: protein structures corresponding to hormonal receptors; experiment: as above; assay type: in vivo
[11] = radioactive 4-hydroxytamoxifen applied on the skin of a healthy subject, urinary radioactivity in 15 days and circulating blood; assay type: in vivo
Text: A small portion of the radioactivity is metabolized to unidentified products (3%). In parallel, this same product in radioactive form was applied on the skin of a healthy subject, and a calculation was made of the radioactivity appearing in the urine in 15 days following administration of the product. […] It is only as a secondary effect that it reaches the liver, where it is inactivated.

For `CC/C(=C(\c1ccccc1)c1ccc(OCCN(C)C)cc1)c1ccccc1` [tamoxifen, 1-[4-(2-N-dimethylaminoethoxy)phenyl]-1,2diphenylbut-1-(Z)-ene], the “harmful side effects: stimulation of the ovaries” value [1] is listed as “a paradoxical stimulation of the ovaries”, the “metabolism/degradation after oral administration” value (shortened to “metabolism/degradation”) [2] is listed as “converted during its passage through the liver to numerous metabolites” and the “activation to the 4-hydroxy derivative by the percutaneous route” value ([3]; percutaneous, breast) is listed as “cannot be activated to its 4-hydroxy derivative by the percutaneous route”.
For `CC(=O)[C@H]1CC[C@H]2[C@@H]3CCC4=CC(=O)CC[C@]4(C)[C@H]3CC[C@]12C` [progesterone], the Fa [4] is given as 10%, the “action on the progesterone receptor” value [5] is given as “binds to is own receptor, which it activates” and the solubility in alcohol [6] is given as “soluble in alcohol”. For the same compound, the “radioactivity in the blood” value ([7]; blood) was “No radioactivity circulates in the blood”, the “uptake by specific receptors and inactivation” value ([7]; conclusion) was “taken up by specific receptors and that it is inactivated for the most part in situ” and the “form found, binding to the progesterone receptors and metabolism” value ([7]; tritiated, percutaneous, excised cancerous breast) was “appeared in its original form, partly bound to the progesterone receptors and partly metabolized”. The “metabolites in the urine” value ([7]; urine) was “various metabolites of progesterone appeared in the 56 hours following the experiment”, the topical retention ([8]; alcoholic solution or 60% strength aqueous alcoholic gel) was 48 h and the “hepatic by-pass after percutaneous administration” value [8] was “hepatic by-passes thus produced were demonstrated”. The “metabolism/degradation” value [2] was “completely destroyed during its passage through the liver”.
In the case of `C[C@]12CC[C@H]3[C@@H](CCC4=CC(=O)CC[C@@]43C)[C@@H]1CC[C@@H]2O` [testosterone], the “hepatic by-pass after percutaneous administration” value [8] is given as “hepatic by-passes thus produced were demonstrated”.
In the case of `CC/C(=C(\c1ccc(O)cc1)c1ccc(OCCN(C)C)cc1)c1ccccc1` [4-hydroxytamoxifen, 1-[4-(2-N-dimethylaminoethoxy)phenyl]-1-(4-hydroxyphenyl)-2-phenylbut-1-(Z)-ene], the metabolised at 24 h [9] is given as 3%, the “form found at the hormonal receptors” value [10] is given as “appeared in its original form at the level of the protein structures corresponding to hormonal receptors” and the “harmful side effects: stimulation of the ovaries” value [1] is given as “detrimental paradoxical stimulation of the ovaries”. The Fa [4] was about 1%, the “product in circulating blood” value ([11]; circulating blood) was “only traces of the product are detectable” and the “destruction of the product from urinary elimination” value ([11]; healthy subject, urine, 15 days) was “weak and gradual destruction of the product”. For the same compound, the solubility in alcohol [6] was “soluble in alcohol”, the “metabolism/degradation” value [2] was “more rapidly degraded than tamoxifen” and the “passage through the cutaneous barrier and uptake on receptor molecules in tumors” value ([3]; 60% strength alcoholic solution) was “capable of passing through the cutaneous barrier and being taken up on the receptor molecules in these tumors”.
